# Assay: recombinant barcode read abundance after kanamycin selection (control-corrected) (log10(CPM+1)); higher = more efficient recombination; sequences stand for … in AGTGCAGAGAAAATCGGCCAGTTTTCTCTGCCTGCAGTCCGCATGCCGT…AGATTTATGCAGCGGACTGCCTTTCTCCCAAAGTGATAAACCGGACAGTATCATGGACCGGTTTTCCCGGTAATCCGTATTTGCAAGGTTGGTTTCACT; site = the 11-nt target
# Method in brief: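 Pooled oligos, each joining a target to an IS621 bridge RNA target-binding loop, were cloned and co-electroporated with a donor plasmid into E. coli. Selective plates carried chloramphenicol/ampicillin/kanamycin and 0.1 mM IPTG, while chloramphenicol/ampicillin LB agar served as control, with two replicates of each. Recombination efficiency rests on averaged, control-corrected counts per million of barcodes at recombinant junctions, shown as log10(CPM+1).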
# 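Note: IS621 recombinase and bridge RNA in Escherichia coli cells.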
row,Sequence,recombinant barcode read abundance (log10)
1,CTAAGAGCTTGGGTTCTAACCTGTTGCAG (site CTAAGAGCTCT),1.98
2,CTAAGCGCTTGGGTTCTAACCTGTTGCCT (site AGTCAGACTGT),0.463
3,CTAAGCGCTTGGGTTCTAACCTGTTGCCT (site CTAAGCGCTAG),0.346
4,CTAAGCTCTTGGGTTCTAACCTGTTGCCT (site ATAAGCTCTAG),0.129
5,CTAAGCTCTTGGGTTCTAACCTGTTGCCT (site CTAAGCTCTAG),0.756
6,CTAAGCTCTTGGGTTCTAACCTGTTGCCT (site GTAAGCTCTAG),0.0807
7,CTAAGCTCTTGGGTTCTAACCTGTTGCCT (site TTAAGCTCTAG),0.201
8,CTAAGCTCTTGGGTTCTAACCTGTTGCTC (site CTAAGCTCTAA),0.537
9,CTAAGCTCTTGGGTTCTAACCTGTTGCTC (site CTAAGCTCTCA),0.0828
10,CTAAGCTCTTGGGTTCTAACCTGTTGCTC (site CTAAGCTCTGA),1.03
11,CTAAGCTCTTGGGTTCTAACCTGTTGCTC (site CTAAGCTCTTA),0.119
12,CTAAGGTCTTGGGTTCTAACCTGTTGCCT (site CTAAGGTCTAA),0.745
13,CTAAGGTCTTGGGTTCTAACCTGTTGCCT (site CTAAGGTCTAC),0.122
14,CTAAGGTCTTGGGTTCTAACCTGTTGCCT (site CTAAGGTCTAG),0.923
15,CTAAGGTCTTGGGTTCTAACCTGTTGCCT (site CTAAGGTCTAT),0.222
16,CTAATACCTTGGGTTCTAACCTGTTGCGT (site CTAATACCTAC),1.04
17,CTAATACCTTGGGTTCTAACCTGTTGCGT (site CTCATACCTAC),0.0518
18,CTAATGTCTTGGGTTCTAACCTGTTGCCT (site CTAATGTCTAG),1.65
19,CTAATGTCTTGGGTTCTAACCTGTTGCCT (site CTAATGTCTTG),0.0145
20,CTAATTGCTTGGGTTCTAACCTGTTGCAA (site CTAATTGCTTT),0.0868
21,CTAATTGCTTGGGTTCTAACCTGTTGCAA (site CTACTTGCTTT),0.0139
22,CTAATTGCTTGGGTTCTAACCTGTTGCAA (site CTAGTTGCTTT),0.344

row,Sequence,recombinant barcode read abundance (log10)
1,CTAATTGCTTGGGTTCTAACCTGTTGCAA (site CTATTTGCTTT),0.0237
2,CTACAATCTTGGGTTCTAACCTGTTGCAT (site CTACAATCTAA),0.192
3,CTACAATCTTGGGTTCTAACCTGTTGCAT (site CTACAATCTAT),1.51
4,CTACAATCTTGGGTTCTAACCTGTTGCTT (site CTACAATCTAA),1.17
5,CTACAATCTTGGGTTCTAACCTGTTGCTT (site CTACAATCTAT),0.816
6,CTACACCCTTGGGTTCTAACCTGTTGCTT (site CTACAACCTAA),0.0455
7,CTACACCCTTGGGTTCTAACCTGTTGCTT (site CTACACCCTAA),1.39
8,CTACACCCTTGGGTTCTAACCTGTTGCTT (site CTACAGCCTAA),0.296
9,CTACACCCTTGGGTTCTAACCTGTTGCTT (site CTACATCCTAA),0.22
10,CTACAGGCTTGGGTTCTAACCTGTTGCAC (site CTACAGGCTGT),1
11,CTACAGGCTTGGGTTCTAACCTGTTGCAC (site GAGTCTTCTTG),0.165
12,CTACCACCTTGGGTTCTAACCTGTTGCCT (site CTACCAACTAG),0.16
13,CTACCACCTTGGGTTCTAACCTGTTGCCT (site CTACCACCTAG),1.8
14,CTACCACCTTGGGTTCTAACCTGTTGCCT (site CTACCAGCTAG),0.0722
15,CTACCACCTTGGGTTCTAACCTGTTGCCT (site CTACCATCTAG),0.214
16,CTACCATCTTGGGTTCTAACCTGTTGCCT (site CTACCAACTAG),0.0518
17,CTACCATCTTGGGTTCTAACCTGTTGCCT (site CTACCACCTAG),0.0894
18,CTACCATCTTGGGTTCTAACCTGTTGCCT (site CTACCAGCTAG),0.278
19,CTACCATCTTGGGTTCTAACCTGTTGCCT (site CTACCATCTAG),0.948
20,CTACCGTCTTGGGTTCTAACCTGTTGCGG (site CTACCATCTCG),0.285
21,CTACCGTCTTGGGTTCTAACCTGTTGCGG (site CTACCGTCTCC),1.97
22,CTACCTCCTTGGGTTCTAACCTGTTGCGT (site CTACCTCCTAC),1.16

row,Sequence,recombinant barcode read abundance (log10)
1,CTACCTCCTTGGGTTCTAACCTGTTGCGT (site CTACTTCCTAC),0.37
2,CTACGAACTTGGGTTCTAACCTGTTGCTG (site CTACGAACTCA),1.53
3,CTACGAACTTGGGTTCTAACCTGTTGCTG (site CTACGCACTCA),0.167
4,CTACGAACTTGGGTTCTAACCTGTTGCTG (site CTACGGACTCA),0.102
5,CTACGAACTTGGGTTCTAACCTGTTGCTG (site CTACGTACTCA),0.142
6,CTACGTCCTTGGGTTCTAACCTGTTGCTG (site CTACGTCCTAA),0.0384
7,CTACGTCCTTGGGTTCTAACCTGTTGCTG (site CTACGTCCTCA),1.64
8,CTACGTCCTTGGGTTCTAACCTGTTGCTG (site CTACGTCCTGA),0.203
9,CTACGTCCTTGGGTTCTAACCTGTTGCTG (site CTACGTCCTTA),0.0883
10,CTACGTCCTTGGGTTCTAACCTGTTGCTT (site CTACGTCCTAA),1.04
11,CTACGTCCTTGGGTTCTAACCTGTTGCTT (site CTACGTCCTCA),0.14
12,CTACGTCCTTGGGTTCTAACCTGTTGCTT (site CTACGTCCTGA),0.297
13,CTACGTCCTTGGGTTCTAACCTGTTGCTT (site CTACGTCCTTA),0.0433
14,CTACGTTCTTGGGTTCTAACCTGTTGCCT (site CCACGTTCTAG),0.761
15,CTACGTTCTTGGGTTCTAACCTGTTGCCT (site CTACGTTCTAG),1.05
16,CTACTAACTTGGGTTCTAACCTGTTGCAT (site CTACTAACTAA),0.173
17,CTACTAACTTGGGTTCTAACCTGTTGCAT (site CTACTAACTAC),0.149
18,CTACTAACTTGGGTTCTAACCTGTTGCAT (site CTACTAACTAG),0.268
19,CTACTAACTTGGGTTCTAACCTGTTGCAT (site CTACTAACTAT),1.34
20,CTACTAACTTGGGTTCTAACCTGTTGCTT (site CTACTAACTAA),0.316
21,CTACTAACTTGGGTTCTAACCTGTTGCTT (site CTACTAACTAC),0.0509
22,CTACTAACTTGGGTTCTAACCTGTTGCTT (site CTACTAACTAG),0.0714

row,Sequence,recombinant barcode read abundance (log10)
1,CTACTAACTTGGGTTCTAACCTGTTGCTT (site CTACTAACTAT),0.0517
2,CTACTAGCTTGGGTTCTAACCTGTTGCAA (site CTACTAGCTAT),0.196
3,CTACTAGCTTGGGTTCTAACCTGTTGCAA (site CTACTAGCTCT),0.617
4,CTACTAGCTTGGGTTCTAACCTGTTGCAA (site CTACTAGCTGT),0.0288
5,CTACTAGCTTGGGTTCTAACCTGTTGCAA (site CTACTAGCTTT),1.25
6,CTAGACACTTGGGTTCTAACCTGTTGCGG (site CTAGACACTCC),2.14
7,CTAGACACTTGGGTTCTAACCTGTTGCGG (site CTGGTCACTCC),0.0881
8,CTAGACCCTTGGGTTCTAACCTGTTGCCT (site ATAGACCCTAG),0.347
9,CTAGACCCTTGGGTTCTAACCTGTTGCCT (site CTAGACCCTAG),1.95
10,CTAGACCCTTGGGTTCTAACCTGTTGCCT (site GTAGACCCTAG),0.223
11,CTAGACCCTTGGGTTCTAACCTGTTGCCT (site TTAGACCCTAG),0.0677
12,CTAGACTCTTGGGTTCTAACCTGTTGCTG (site CTAGACTCTAA),0.136
13,CTAGACTCTTGGGTTCTAACCTGTTGCTG (site CTAGACTCTCA),2.73
14,CTAGACTCTTGGGTTCTAACCTGTTGCTG (site CTAGACTCTGA),0.076
15,CTAGACTCTTGGGTTCTAACCTGTTGCTG (site CTAGACTCTTA),0.188
16,CTAGCCTCTTGGGTTCTAACCTGTTGCAT (site CTAACCTCTAT),0.739
17,CTAGCCTCTTGGGTTCTAACCTGTTGCAT (site CTACCCTCTAT),0.582
18,CTAGCCTCTTGGGTTCTAACCTGTTGCAT (site CTAGCCTCTAT),2.38
19,CTAGCCTCTTGGGTTCTAACCTGTTGCAT (site CTATCCTCTAT),0.0542
20,CTAGCGACTTGGGTTCTAACCTGTTGCTG (site CTAGCCACTTA),0

# From the supplement of paper PMC11208160
